Measurements: patent publication US12539292B2, “BRM targeting compounds and associated methods of use” (Arvinas Operations, Inc., priority 2018, dated 2026)

Biological target: T1, BRM (Homo sapiens, UniProt P51531)
T1 construct: In-Cell Western Screen of BRM Degradation in SW1573 Cells; endogenous in cells; host or cells: SW1573
Assay: In-cell Western screen of BRM degradation in SW1573 cells (Dmax and DC50)
Assay type: cell-based
Details: BRM degradation, SW1573 cells; for DC50: read-out: DC50; for Dmax: tested at the top concentration of between 0.3 and 10 μM, read-out: Dmax (%) (% degraded)
How it was run: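 BRM levels were read by LI-COR in-cell Western after two-channel (800/680 nm) immunostaining of fixed, Triton-permeabilised SW1573 cells.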

T1 sequence (P51531 whole entry): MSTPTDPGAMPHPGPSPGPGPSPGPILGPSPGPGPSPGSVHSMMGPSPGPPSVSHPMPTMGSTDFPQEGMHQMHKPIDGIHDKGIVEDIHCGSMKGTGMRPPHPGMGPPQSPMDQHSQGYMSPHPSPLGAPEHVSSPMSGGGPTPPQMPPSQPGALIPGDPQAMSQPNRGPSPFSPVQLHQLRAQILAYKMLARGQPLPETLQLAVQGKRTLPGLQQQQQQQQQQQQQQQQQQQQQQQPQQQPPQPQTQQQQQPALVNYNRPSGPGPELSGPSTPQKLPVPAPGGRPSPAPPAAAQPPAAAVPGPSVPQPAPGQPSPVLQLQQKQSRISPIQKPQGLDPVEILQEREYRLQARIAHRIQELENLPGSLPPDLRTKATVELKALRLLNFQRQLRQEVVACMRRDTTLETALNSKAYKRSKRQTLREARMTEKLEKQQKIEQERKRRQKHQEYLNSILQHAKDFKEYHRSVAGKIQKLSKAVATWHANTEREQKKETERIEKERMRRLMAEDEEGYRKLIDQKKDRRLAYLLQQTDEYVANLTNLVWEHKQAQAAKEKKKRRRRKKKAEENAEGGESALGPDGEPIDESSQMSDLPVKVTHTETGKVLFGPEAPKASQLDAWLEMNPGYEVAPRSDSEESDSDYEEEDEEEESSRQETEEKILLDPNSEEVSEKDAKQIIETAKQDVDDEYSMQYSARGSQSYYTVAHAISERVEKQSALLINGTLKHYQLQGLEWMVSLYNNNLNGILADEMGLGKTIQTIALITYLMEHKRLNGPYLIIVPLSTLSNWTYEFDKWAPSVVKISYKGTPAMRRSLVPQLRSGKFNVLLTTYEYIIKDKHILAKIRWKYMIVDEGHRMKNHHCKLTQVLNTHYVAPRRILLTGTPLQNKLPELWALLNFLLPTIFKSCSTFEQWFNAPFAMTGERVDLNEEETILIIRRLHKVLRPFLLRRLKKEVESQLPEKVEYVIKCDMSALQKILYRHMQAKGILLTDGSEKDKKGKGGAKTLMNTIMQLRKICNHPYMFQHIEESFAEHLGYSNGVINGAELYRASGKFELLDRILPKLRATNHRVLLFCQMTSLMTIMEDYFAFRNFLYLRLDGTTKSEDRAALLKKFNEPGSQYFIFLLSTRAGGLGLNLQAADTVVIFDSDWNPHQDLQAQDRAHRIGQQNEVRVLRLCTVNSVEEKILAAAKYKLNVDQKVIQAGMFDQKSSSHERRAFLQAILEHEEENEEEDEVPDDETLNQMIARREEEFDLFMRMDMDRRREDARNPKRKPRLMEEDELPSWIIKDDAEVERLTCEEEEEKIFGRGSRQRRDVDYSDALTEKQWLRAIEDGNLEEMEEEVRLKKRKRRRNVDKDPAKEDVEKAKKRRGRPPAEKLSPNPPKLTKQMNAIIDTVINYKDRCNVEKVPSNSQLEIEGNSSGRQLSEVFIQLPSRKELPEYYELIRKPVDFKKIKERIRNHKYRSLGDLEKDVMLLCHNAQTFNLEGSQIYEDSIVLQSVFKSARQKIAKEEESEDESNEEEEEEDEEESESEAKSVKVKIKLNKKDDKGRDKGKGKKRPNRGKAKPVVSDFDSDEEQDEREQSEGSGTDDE

| Compound | DC50 [nM] | Dmax [%] |
| --- | --- | --- |
| Cc1ncsc1-c1ccc([C@H](C)NC(=O)[C@@H]2C[C@@H](O)CN2C(=O)[C@H](c2cc(OCCOc3ccc(C(C)n4cc(-c5cc(-c6ccccc6O)nnc5N)cn4)cn3)no2)C(C)C)cc1 (stereo partly drawn) [compound 163, (2S,4R)-1-((2S)-2-(3-(2-((5-(1-(4-(3-amino-6-(2-hydroxyphenyl)pyridazin-4-yl)-1H-pyrazol-1-yl)ethyl)pyridin-2-yl)oxy)ethoxy)isoxazol-5-yl)-3-methylbutanoyl)-4-hydroxy-N-((S)-1-(4-(4-methylthiazol-5-yl)phenyl)ethyl)pyrrolidine-2-carboxamide] | < 2.5 | > 75 |
| Cc1ncsc1-c1ccc([C@H](C)NC(=O)[C@@H]2C[C@@H](O)CN2C(=O)[C@H](c2cc(OCCN3CCC4(CC3)CC(OCCN3CCOC5(CCN(c6cc(-c7ccccc7O)nnc6N)CC5)C3)C4)no2)C(C)C)cc1 [compound 164, (2S,4R)-1-((S)-2-(3-(2-(2-(2-(9-(3-amino-6-(2-hydroxyphenyl)pyridazin-4-yl)-1-oxa-4,9-diazaspiro[5.5]undecan-4-yl)ethoxy)-7-azaspiro[3.5]nonan-7-yl)ethoxy)isoxazol-5-yl)-3-methylbutanoyl)-4-hydroxy-N-((S)-1-(4-(4-methylthiazol-5-yl)phenyl)ethyl)pyrrolidine-2-carboxamide] | 10 to 30 | 50 to 75 |
| Cc1ncsc1-c1ccc(CNC(=O)[C@@H]2C[C@@H](O)CN2C(=O)[C@H](c2cc(OCCN3CCN(CCOCCn4cc(-c5cc(-c6ccccc6O)nnc5N)cn4)CC3)no2)C(C)C)cc1 [compound 165, (2S,4R)-1-((S)-2-(3-(2-(4-(2-(2-(4-(3-amino-6-(2-hydroxyphenyl)pyridazin-4-yl)-1H-pyrazol-1-yl)ethoxy)ethyl)piperazin-1-yl)ethoxy)isoxazol-5-yl)-3-methylbutanoyl)-4-hydroxy-N-(4-(4-methylthiazol-5-yl)benzyl)pyrrolidine-2-carboxamide] | > 30 | < 50 |
| Cc1ncsc1-c1ccc([C@H](C)NC(=O)[C@@H]2C[C@@H](O)CN2C(=O)[C@H](c2cc(OCCN3CCN(Cc4ccc(C(C)n5cc(-c6cc(-c7ccccc7O)nnc6N)cn5)cc4)CC3)no2)C(C)C)cc1 (stereo partly drawn) [compound 166, (2S,4R)-1-((2S)-2-(3-(2-(4-(4-(1-(4-(3-amino-6-(2-hydroxyphenyl)pyridazin-4-yl)-1H-pyrazol-1-yl)ethyl)benzyl)piperazin-1-yl)ethoxy)isoxazol-5-yl)-3-methylbutanoyl)-4-hydroxy-N-((S)-1-(4-(4-methylthiazol-5-yl)phenyl)ethyl)pyrrolidine-2-carboxamide] | 2.5 to 10 | > 75 |
| CC(C)C(C(=O)N1C[C@H](O)C[C@H]1C(=O)N[C@@H](C)c1ccc(-c2scnc2CN(C)C)cc1)c1cc(OCCN2CCN(CCOc3cc(N4C5CCC4CN(c4cc(-c6ccccc6O)nnc4N)C5)ccn3)CC2)no1 (stereo partly drawn) [compound 167, (2S,4R)-1-(2-(3-(2-(4-(2-((4-(3-(3-amino-6-(2-hydroxyphenyl)pyridazin-4-yl)-3,8-diazabicyclo[3.2.1]octan-8-yl)pyridin-2-yl)oxy)ethyl)piperazin-1-yl)ethoxy)isoxazol-5-yl)-3-methylbutanoyl)-N-((S)-1-(4-(4-((dimethylamino)methyl)thiazol-5-yl)phenyl)ethyl)-4-hydroxypyrrolidine-2-carboxamide] | 10 to 30 | > 75 |
| CC(C)C(C(=O)N1C[C@H](O)C[C@H]1C(=O)N[C@@H](C)c1ccc(-c2scnc2CO)cc1)c1cc(OCCN2CCN(CCOc3cc(N4C5CCC4CN(c4cc(-c6ccccc6O)nnc4N)C5)ccn3)CC2)no1 (stereo partly drawn) [compound 168, (2S,4R)-1-(2-(3-(2-(4-(2-((4-(3-(3-amino-6-(2-hydroxyphenyl)pyridazin-4-yl)-3,8-diazabicyclo[3.2.1]octan-8-yl)pyridin-2-yl)oxy)ethyl)piperazin-1-yl)ethoxy)isoxazol-5-yl)-3-methylbutanoyl)-4-hydroxy-N-((S)-1-(4-(4-(hydroxymethyl)thiazol-5-yl)phenyl)ethyl)pyrrolidine-2-carboxamide] | < 2.5 | > 75 |
| COCc1ncsc1-c1ccc([C@H](C)NC(=O)[C@@H]2C[C@@H](O)CN2C(=O)C(c2cc(OCCN3CCN(CCOc4cc(N5C6CCC5CN(c5cc(-c7ccccc7O)nnc5N)C6)ccn4)CC3)no2)C(C)C)cc1 (stereo partly drawn) [compound 169, (2S,4R)-1-(2-(3-(2-(4-(2-((4-(3-(3-amino-6-(2-hydroxyphenyl)pyridazin-4-yl)-3,8-diazabicyclo[3.2.1]octan-8-yl)pyridin-2-yl)oxy)ethyl)piperazin-1-yl)ethoxy)isoxazol-5-yl)-3-methylbutanoyl)-4-hydroxy-N-((S)-1-(4-(4-(methoxymethyl)thiazol-5-yl)phenyl)ethyl)pyrrolidine-2-carboxamide] | < 2.5 | > 75 |
| Cc1ncsc1-c1ccc([C@H](C)NC(=O)[C@@H]2C[C@@H](O)CN2C(=O)[C@H](c2cc(CCCN3CCN(CCOc4cc(N5C6CCC5CN(c5cc(-c7ccccc7O)nnc5N)C6)ccn4)CC3)no2)C(C)C)cc1 [compound 170, (2S,4R)-1-((2S)-2-(3-(3-(4-(2-((4-(3-(3-amino-6-(2-hydroxyphenyl)pyridazin-4-yl)-3,8-diazabicyclo[3.2.1]octan-8-yl)pyridin-2-yl)oxy)ethyl)piperazin-1-yl)propyl)isoxazol-5-yl)-3-methylbutanoyl)-4-hydroxy-N-((S)-1-(4-(4-methylthiazol-5-yl)phenyl)ethyl)pyrrolidine-2-carboxamide] | 2.5 to 10 | > 75 |
| Cc1ncsc1-c1ccc([C@@H](NC(=O)[C@@H]2C[C@@H](O)CN2C(=O)[C@H](c2cc(OCCN3CCN(CCOc4cc(N5C6CCC5CN(c5cc(-c7ccccc7O)nnc5N)C6)ccn4)CC3)no2)C(C)C)C(=O)N(C)C)cc1 [compound 171, (2S,4R)-1-((2S)-2-(3-(2-(4-(2-((4-(3-(3-amino-6-(2-hydroxyphenyl)pyridazin-4-yl)-3,8-diazabicyclo[3.2.1]octan-8-yl)pyridin-2-yl)oxy)ethyl)piperazin-1-yl)ethoxy)isoxazol-5-yl)-3-methylbutanoyl)-N-((R)-2-(dimethylamino)-1-(4-(4-methylthiazol-5-yl)phenyl)-2-oxoethyl)-4-hydroxypyrrolidine-2-carboxamide] | > 30 | 50 to 75 |
| CC(C)C(C(=O)N1C[C@H](O)C[C@H]1C(=O)N[C@@H](C)c1ccc(-c2scnc2C#CCN(C)C)cc1)c1cc(OCCN2CCN(CCOc3cc(N4C5CCC4CN(c4cc(-c6ccccc6O)nnc4N)C5)ccn3)CC2)no1 (stereo partly drawn) [compound 172, (2S,4R)-1-(2-(3-(2-(4-(2-((4-(3-(3-amino-6-(2-hydroxyphenyl)pyridazin-4-yl)-3,8-diazabicyclo[3.2.1]octan-8-yl)pyridin-2-yl)oxy)ethyl)piperazin-1-yl)ethoxy)isoxazol-5-yl)-3-methylbutanoyl)-N-((S)-1-(4-(4-(3-(dimethylamino)prop-1-yn-1-yl)thiazol-5-yl)phenyl)ethyl)-4-hydroxypyrrolidine-2-carboxamide] | < 2.5 | > 75 |
| Cc1ncsc1-c1ccc([C@@H](NC(=O)[C@@H]2C[C@@H](O)CN2C(=O)[C@H](c2cc(OCCN3CCN(CCOc4cc(N5C6CCC5CN(c5cc(-c7ccccc7O)nnc5N)C6)ccn4)CC3)no2)C(C)C)C(F)F)cc1 [compound 173, (2S,4R)-1-((2S)-2-(3-(2-(4-(2-((4-(3-(3-amino-6-(2-hydroxyphenyl)pyridazin-4-yl)-3,8-diazabicyclo[3.2.1]octan-8-yl)pyridin-2-yl)oxy)ethyl)piperazin-1-yl)ethoxy)isoxazol-5-yl)-3-methylbutanoyl)-N-((R)-2,2-difluoro-1-(4-(4-methylthiazol-5-yl)phenyl)ethyl)-4-hydroxypyrrolidine-2-carboxamide] | > 30 | > 75 |
| CC(=O)NCc1ncsc1-c1ccc([C@H](C)NC(=O)[C@@H]2C[C@@H](O)CN2C(=O)C(c2cc(OCCN3CCN(CCOc4cc(N5C6CCC5CN(c5cc(-c7ccccc7O)nnc5N)C6)ccn4)CC3)no2)C(C)C)cc1 (stereo partly drawn) [compound 174, (2S,4R)-N-((S)-1-(4-(4-(acetamidomethyl)thiazol-5-yl)phenyl)ethyl)-1-(2-(3-(2-(4-(2-((4-(3-(3-amino-6-(2-hydroxyphenyl)pyridazin-4-yl)-3,8-diazabicyclo[3.2.1]octan-8-yl)pyridin-2-yl)oxy)ethyl)piperazin-1-yl)ethoxy)isoxazol-5-yl)-3-methylbutanoyl)-4-hydroxypyrrolidine-2-carboxamide] | 10 to 30 | > 75 |
| CC(=O)NCC#Cc1ncsc1-c1ccc([C@H](C)NC(=O)[C@@H]2C[C@@H](O)CN2C(=O)C(c2cc(OCCN3CCN(CCOc4cc(N5C6CCC5CN(c5cc(-c7ccccc7O)nnc5N)C6)ccn4)CC3)no2)C(C)C)cc1 (stereo partly drawn) [compound 175, (2S,4R)-N-((S)-1-(4-(4-(3-acetamidoprop-1-yn-1-yl)thiazol-5-yl)phenyl)ethyl)-1-(2-(3-(2-(4-(2-((4-(3-(3-amino-6-(2-hydroxyphenyl)pyridazin-4-yl)-3,8-diazabicyclo[3.2.1]octan-8-yl)pyridin-2-yl)oxy)ethyl)piperazin-1-yl)ethoxy)isoxazol-5-yl)-3-methylbutanoyl)-4-hydroxypyrrolidine-2-carboxamide] | 2.5 to 10 | > 75 |
| Cc1nccn1-c1ccc([C@H](C)NC(=O)[C@@H]2C[C@@H](O)CN2C(=O)[C@H](c2cc(OCCN3CCC(O[C@H]4C[C@H](Oc5cc(N6C7CCC6CN(c6cc(-c8ccccc8O)nnc6N)C7)ccn5)C4)CC3)no2)C(C)C)cc1 [compound 176, (2S,4R)-1-((2S)-2-(3-(2-(4-((1r,3S)-3-((4-(3-(3-amino-6-(2-hydroxyphenyl)pyridazin-4-yl)-3,8-diazabicyclo[3.2.1]octan-8-yl)pyridin-2-yl)oxy)cyclobutoxy)piperidin-1-yl)ethoxy)isoxazol-5-yl)-3-methylbutanoyl)-4-hydroxy-N-((S)-1-(4-(2-methyl-1H-imidazol-1-yl)phenyl)ethyl)pyrrolidine-2-carboxamide] | > 30 | < 50 |
